# Results: patent publication US4748187A, “Opioid peptide-degrading enzyme inhibitor with a germanium compound” (Asai Germanium Research Institute, priority 1983, dated 1988)
# Experiments:
# Assay type in all cases: biochemical
# aminopeptidase [1] = experiment: Inhibition of aminopeptidase of human cerebrospinal fluid (substrate enkephalin); settings: for IC50: aminopeptidase eluted from human cerebrospinal fluid, substrate enkephalin; for inhibition effect on aminopeptidase: dialyzed human cerebrospinal fluid, 2 mg/ml
# Experimental: (§1) A human cerebrospinal fluid was dialyzed by using 25 mM of tris-HCl buffer having a pH of 7.0 for 5 hrs. Enkephalin-degrading enzymes contained therein were analyzed according to a radioautography or the like. In the cerebrospinal fluid, the aminopeptidase activity was the strongest. Further, dipeptidylaminopeptidase and dipeptidylcarboxypeptidase activites which were non-selective for bestatin were also recognized.
# (§2) The compound (3) and (6) of the present invention were allowed to act on the respective enzymes.
# On the other hand, the aminopeptidase alone was eluted according to the cellulose column chromatography using a NaCl solution as a eluant. IC50 values of the above two compounds on the aminopeptidase were determined according to Porapak Q column process and high-performance liquid chromatography using enkephalin as the substrate. The results were compared with those of Arphamenin A and B the inhibitive actions of which on the enkephalin-degrading enzyme have been known.
# Dipeptidylaminopeptidase [2] = experiment: Inhibition of dipeptidylaminopeptidase from monkey brain (substrate enkephalin)
# Aminopeptidase [3] = experiment: Inhibition of aminopeptidase from monkey brain (substrate enkephalin)
# Carboxypeptidase [4] = experiment: Inhibition of carboxypeptidase from bovine longitudinal muscle (substrate Hip-L-PheAla); settings: for inhibition rate, Carboxypeptidase: principal ingredient 1 μg/1 ml
# Source text: (§3) (1) As described above, the inhibitor of the present invention has a strong effect of inhibiting the action of the opioid peptide-degrading enzyme. […] On the other hand, however, some opioid peptides released in vivo when such narcotic substances are given and opioid peptide-degrading enzymes have been known. Accordingly, the effects of the products of the present invention were judged from inhibition rates realized when the products were allowed to act on the opioid peptide-degrading enzyme in the presence of the opioid peptide in vitro.
# (§4) In the tests, the product of the invention was added to an opioid peptide such as enkephalin or its model compound. After an incubation effected for a given time, the inhibition rates of the product against the opioid peptide-degrading enzyme were examined. Various opioid peptides were used.
# (§5) The opioid peptide-degrading enzymes derived from bovine longitudinal muscle used in the above examples were purified partially by a process of Goreustein and Snyder S. H., ["Life Sci." 25, 2065 (1979)]. The inhibition effects of the compounds of the present invention on the opioid peptide-degrading enzymes were determined by a process of T. Hazato, M. Shimamura, T. Katayama and T. Yamamoto [B.B.R.C. 105, 470-475 (1982)] (for dipeptidylaminopeptidase), a process of M. Shimamura, T. Hazato and T. Katayama [B.B.A., 756, 223-229 (1983)] (for aminopeptidase) and analogous processes.
# [5] = biological target: Angiotensin converting enzyme; experiment: Inhibition of angiotensin converting enzyme from monkey brain; settings: substrate Hip--His--L-Lue
# [6] = biological target: T1, Dipeptidylcarboxypeptidase (Bos taurus, UniProt P12820); experiment: Inhibition of dipeptidylcarboxypeptidase from bovine longitudinal muscle (substrate Hip-His-Leu)
# T1 construct: derived from bovine longitudinal muscle; from tissue; host or cells: bovine longitudinal muscle, partially purified (Gorenstein and Snyder 1979)
# T1 sequence (P12820 29-1306): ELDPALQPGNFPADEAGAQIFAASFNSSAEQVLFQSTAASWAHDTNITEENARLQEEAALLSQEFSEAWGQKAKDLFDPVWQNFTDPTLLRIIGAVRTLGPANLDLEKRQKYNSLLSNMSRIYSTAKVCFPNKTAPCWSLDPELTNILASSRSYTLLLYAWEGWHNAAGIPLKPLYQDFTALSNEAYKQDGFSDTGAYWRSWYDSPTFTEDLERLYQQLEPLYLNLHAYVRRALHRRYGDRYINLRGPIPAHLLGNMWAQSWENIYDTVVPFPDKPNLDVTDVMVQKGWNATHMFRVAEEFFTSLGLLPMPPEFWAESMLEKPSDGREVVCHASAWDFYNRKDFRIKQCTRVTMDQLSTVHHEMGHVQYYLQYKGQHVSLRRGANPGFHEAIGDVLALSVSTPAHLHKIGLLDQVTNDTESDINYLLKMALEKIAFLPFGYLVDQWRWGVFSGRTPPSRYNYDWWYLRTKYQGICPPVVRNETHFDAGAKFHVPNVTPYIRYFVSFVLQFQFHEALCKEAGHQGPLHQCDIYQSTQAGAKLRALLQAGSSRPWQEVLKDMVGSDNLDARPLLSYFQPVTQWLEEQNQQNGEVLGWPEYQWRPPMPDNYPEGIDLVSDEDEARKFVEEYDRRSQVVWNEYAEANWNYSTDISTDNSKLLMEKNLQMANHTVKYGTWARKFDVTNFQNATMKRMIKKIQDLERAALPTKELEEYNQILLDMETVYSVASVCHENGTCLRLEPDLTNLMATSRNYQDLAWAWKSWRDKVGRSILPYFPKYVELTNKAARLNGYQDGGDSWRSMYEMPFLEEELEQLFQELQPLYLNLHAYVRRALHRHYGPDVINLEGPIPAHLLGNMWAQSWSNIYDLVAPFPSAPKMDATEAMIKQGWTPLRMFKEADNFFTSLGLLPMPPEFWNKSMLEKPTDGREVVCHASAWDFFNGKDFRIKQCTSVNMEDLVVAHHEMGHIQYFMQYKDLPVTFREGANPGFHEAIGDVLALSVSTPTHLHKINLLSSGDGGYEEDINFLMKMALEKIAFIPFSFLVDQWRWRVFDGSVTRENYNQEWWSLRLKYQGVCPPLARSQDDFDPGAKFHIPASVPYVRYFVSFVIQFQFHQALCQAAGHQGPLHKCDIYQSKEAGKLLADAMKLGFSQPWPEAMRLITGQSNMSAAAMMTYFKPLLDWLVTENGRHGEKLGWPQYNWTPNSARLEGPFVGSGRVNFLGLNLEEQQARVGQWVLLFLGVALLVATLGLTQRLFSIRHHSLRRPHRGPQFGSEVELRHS
# Source text: as §3, §4
# as §5, with “(for aminopeptidase) and analogous processes.” left out
# [7] = biological target: T2, angiotensin converting enzyme (Rattus norvegicus, UniProt P47820); experiment: Inhibition of angiotensin converting enzyme from rat lung; settings: substrate Hip--His--L-Lue
# T2 construct: lung; from tissue; host or cells: rat lung
# T2 sequence (P47820 36-1313): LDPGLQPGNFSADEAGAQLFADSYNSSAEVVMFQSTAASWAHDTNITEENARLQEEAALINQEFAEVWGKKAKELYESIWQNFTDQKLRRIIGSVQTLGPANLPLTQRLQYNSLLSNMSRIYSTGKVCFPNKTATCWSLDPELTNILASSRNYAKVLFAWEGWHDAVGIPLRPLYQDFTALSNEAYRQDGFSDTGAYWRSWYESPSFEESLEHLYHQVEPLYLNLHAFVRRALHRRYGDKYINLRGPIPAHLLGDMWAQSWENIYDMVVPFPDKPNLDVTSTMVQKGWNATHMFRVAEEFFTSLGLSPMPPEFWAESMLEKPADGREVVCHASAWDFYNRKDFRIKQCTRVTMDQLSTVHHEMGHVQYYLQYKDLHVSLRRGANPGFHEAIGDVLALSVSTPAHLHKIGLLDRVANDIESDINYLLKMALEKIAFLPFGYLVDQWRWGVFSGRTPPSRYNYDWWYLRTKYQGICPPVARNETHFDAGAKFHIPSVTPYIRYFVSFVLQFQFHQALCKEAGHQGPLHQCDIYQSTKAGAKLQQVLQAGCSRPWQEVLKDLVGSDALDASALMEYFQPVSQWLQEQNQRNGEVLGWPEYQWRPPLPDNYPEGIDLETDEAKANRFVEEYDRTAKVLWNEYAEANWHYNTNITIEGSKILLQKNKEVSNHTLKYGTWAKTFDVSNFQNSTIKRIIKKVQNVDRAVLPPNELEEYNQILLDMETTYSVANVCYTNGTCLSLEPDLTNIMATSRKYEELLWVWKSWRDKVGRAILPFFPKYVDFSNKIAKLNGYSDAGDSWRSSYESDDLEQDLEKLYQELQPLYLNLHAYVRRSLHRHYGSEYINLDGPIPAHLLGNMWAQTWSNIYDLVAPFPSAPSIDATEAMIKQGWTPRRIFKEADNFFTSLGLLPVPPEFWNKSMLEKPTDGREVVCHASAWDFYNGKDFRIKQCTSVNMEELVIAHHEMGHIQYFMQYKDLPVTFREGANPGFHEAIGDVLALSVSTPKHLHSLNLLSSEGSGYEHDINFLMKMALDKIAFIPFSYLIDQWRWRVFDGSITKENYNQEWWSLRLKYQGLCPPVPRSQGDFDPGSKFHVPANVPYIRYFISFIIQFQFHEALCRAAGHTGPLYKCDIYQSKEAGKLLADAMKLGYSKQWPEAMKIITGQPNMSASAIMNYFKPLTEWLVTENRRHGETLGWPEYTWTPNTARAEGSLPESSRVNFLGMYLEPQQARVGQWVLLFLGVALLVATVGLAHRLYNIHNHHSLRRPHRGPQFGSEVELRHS
# dipeptidylaminopeptidase [8] = biological target: T3, dipeptidylaminopeptidase (Homo sapiens, UniProt Q9NY33); experiment: Inhibition of dipeptidylaminopeptidase of human cerebrospinal fluid; settings: dialyzed human cerebrospinal fluid; 2 mg/ml
# T3 construct: A human cerebrospinal fluid was dialyzed; from tissue; host or cells: human cerebrospinal fluid, dialyzed
# T3 sequence (Q9NY33 2-737 limits assumed): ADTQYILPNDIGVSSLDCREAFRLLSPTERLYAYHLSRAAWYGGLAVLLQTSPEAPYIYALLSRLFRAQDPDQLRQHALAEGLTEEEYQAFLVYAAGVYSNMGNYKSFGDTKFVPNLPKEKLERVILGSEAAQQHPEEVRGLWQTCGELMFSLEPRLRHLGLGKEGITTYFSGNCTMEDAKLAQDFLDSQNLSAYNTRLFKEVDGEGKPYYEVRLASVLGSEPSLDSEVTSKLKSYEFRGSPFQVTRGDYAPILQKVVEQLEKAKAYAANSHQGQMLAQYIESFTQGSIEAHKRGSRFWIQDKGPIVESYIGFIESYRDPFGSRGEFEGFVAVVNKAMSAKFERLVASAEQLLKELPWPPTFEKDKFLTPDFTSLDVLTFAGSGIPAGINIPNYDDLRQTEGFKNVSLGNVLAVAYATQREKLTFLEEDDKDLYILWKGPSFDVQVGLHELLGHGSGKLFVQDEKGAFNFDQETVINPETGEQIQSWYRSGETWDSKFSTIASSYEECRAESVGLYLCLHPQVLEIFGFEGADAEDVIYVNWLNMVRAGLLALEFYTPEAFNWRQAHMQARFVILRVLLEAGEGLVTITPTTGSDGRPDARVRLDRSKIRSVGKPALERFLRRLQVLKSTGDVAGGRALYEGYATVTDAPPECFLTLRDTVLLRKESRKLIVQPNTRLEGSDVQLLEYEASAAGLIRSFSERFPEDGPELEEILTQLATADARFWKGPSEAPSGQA
# Experimental: as §1, §2
# [9] = biological target: dipeptidylcarboxypeptidase (Homo sapiens, UniProt P12821); experiment: Inhibition of dipeptidylcarboxypeptidase of human cerebrospinal fluid; settings: dialyzed human cerebrospinal fluid; 2 mg/ml
# Chain of dipeptidylcarboxypeptidase (P12821 30-1232): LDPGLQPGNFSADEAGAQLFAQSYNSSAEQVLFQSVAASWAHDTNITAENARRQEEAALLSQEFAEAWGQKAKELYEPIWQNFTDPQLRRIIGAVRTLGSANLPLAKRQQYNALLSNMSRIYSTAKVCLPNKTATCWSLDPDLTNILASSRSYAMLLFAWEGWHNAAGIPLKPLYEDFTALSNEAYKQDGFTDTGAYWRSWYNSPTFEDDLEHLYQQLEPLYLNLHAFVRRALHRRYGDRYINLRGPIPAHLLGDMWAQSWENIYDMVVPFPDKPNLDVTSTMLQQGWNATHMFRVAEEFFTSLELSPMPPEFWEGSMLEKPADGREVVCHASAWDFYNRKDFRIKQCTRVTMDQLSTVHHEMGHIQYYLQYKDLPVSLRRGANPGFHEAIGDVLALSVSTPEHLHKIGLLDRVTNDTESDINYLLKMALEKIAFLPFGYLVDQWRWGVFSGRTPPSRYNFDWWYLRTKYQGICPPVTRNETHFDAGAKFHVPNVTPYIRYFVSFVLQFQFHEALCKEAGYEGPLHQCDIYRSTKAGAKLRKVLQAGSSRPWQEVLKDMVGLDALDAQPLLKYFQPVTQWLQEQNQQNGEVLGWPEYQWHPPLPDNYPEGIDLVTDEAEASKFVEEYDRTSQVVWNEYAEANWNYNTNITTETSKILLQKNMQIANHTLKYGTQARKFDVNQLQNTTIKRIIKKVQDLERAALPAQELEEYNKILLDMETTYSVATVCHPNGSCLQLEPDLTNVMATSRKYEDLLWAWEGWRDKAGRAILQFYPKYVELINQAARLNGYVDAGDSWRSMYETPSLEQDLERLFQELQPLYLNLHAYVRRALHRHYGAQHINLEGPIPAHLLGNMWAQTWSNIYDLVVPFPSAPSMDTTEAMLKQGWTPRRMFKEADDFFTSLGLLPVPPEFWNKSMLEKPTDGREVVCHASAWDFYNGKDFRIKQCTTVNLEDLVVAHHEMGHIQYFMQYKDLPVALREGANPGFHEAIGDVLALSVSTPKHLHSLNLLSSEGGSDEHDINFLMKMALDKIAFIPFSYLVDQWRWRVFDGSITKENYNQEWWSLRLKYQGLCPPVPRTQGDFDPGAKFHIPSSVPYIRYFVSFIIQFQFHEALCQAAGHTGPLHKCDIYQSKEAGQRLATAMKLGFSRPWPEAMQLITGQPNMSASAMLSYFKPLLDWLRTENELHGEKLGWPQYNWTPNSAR
# Experimental: as §1, §2
# Aminopeptidase [10] = experiment: Inhibition of aminopeptidase from bovine longitudinal muscle (substrate enkephalin); settings: for IC50: aminopeptidase; for inhibition rate, Aminopeptidase: principal ingredient 1 μg/1 ml
# Source text: as §3, §4, §5
# carboxypeptidase [11] = experiment: Inhibition of carboxypeptidase of human cerebrospinal fluid; settings: dialyzed human cerebrospinal fluid; 2 mg/ml
# Experimental: as §1, §2
smiles,measurement,setting,value
"N=C(N)NCCCC(N)C(=O)CC(Cc1ccccc1)C(=O)O (stereo not drawn) [Arphamenine A, reference compound]",IC50,aminopeptidase [1],810 μg/m
"N=C(N)NCCCC(N)C(=O)CC(Cc1ccc(O)cc1)C(=O)O (stereo not drawn) [Arphamenine B, reference compound]",IC50,aminopeptidase [1],650 μg/m
O=C(O)C[CH2][Ge](=[S])[S][Ge](=[S])[CH2]CC(=O)O [Compound (1)],"inhibition rate, Dipeptidylaminopeptidase",Dipeptidylaminopeptidase [2],98.2%
same,"inhibition rate, Aminopeptidase",Aminopeptidase [3],87.8%
C[CH](CC(=O)O)[Ge](=[S])[S][Ge](=[S])[CH](C)CC(=O)O (stereo not drawn) [Compound (2)],"inhibition rate, Carboxypeptidase",Carboxypeptidase [4],6.2%
same,IC50,[5],78 µg/mL
same,IC50,[6],159 µM
same,"inhibition rate, Dipeptidylaminopeptidase",Dipeptidylaminopeptidase [2],97.9%
same,"inhibition rate, Aminopeptidase",Aminopeptidase [3],87.6%
same,IC50,[7],168 µM
CC([CH2][Ge](=[S])[S][Ge](=[S])[CH2]C(C)C(=O)O)C(=O)O (stereo not drawn) [Compound (3)],inhibition effect on dipeptidylaminopeptidase,dipeptidylaminopeptidase [8],exhibited inhibition effects
same,inhibition effect on dipeptidylcarboxypeptidase,[9],exhibited inhibition effects
same,IC50,aminopeptidase [1],450 μg/m
same,inhibition effect on aminopeptidase,aminopeptidase [1],exhibited inhibition effects
same,"inhibition rate, Dipeptidylaminopeptidase",Dipeptidylaminopeptidase [2],97.7%
same,"inhibition rate, Aminopeptidase",Aminopeptidase [3],85.6%
C[C](C)(CC(=O)O)[Ge](=[S])[S][Ge](=[S])[C](C)(C)CC(=O)O [Compound (5)],IC50,Aminopeptidase [10],110 µg/mL
same,"inhibition rate, Aminopeptidase",Aminopeptidase [10],88.0%
O=C(O)C[CH](c1ccccc1)[Ge](=[S])[S][Ge](=[S])[CH](CC(=O)O)c1ccccc1 (stereo not drawn) [Compound (6)],IC50,Carboxypeptidase [4]; carboxypeptidase,275 µg/mL
same,"inhibition rate, Carboxypeptidase",Carboxypeptidase [4],89.8%
same,inhibition effect on carboxypeptidase,carboxypeptidase [11],exhibited inhibition effects
same,IC50,[6],185 µM
same,inhibition effect on dipeptidylcarboxypeptidase,[9],exhibited inhibition effects
same,IC50,aminopeptidase [1],440 μg/m
same,inhibition effect on aminopeptidase,aminopeptidase [1],exhibited inhibition effects
same,IC50,Aminopeptidase [10],19 µg/mL
same,"inhibition rate, Aminopeptidase",Aminopeptidase [10],97.0%
